Tests used:
endogenous NAMPT = endogenous NAMPT (Homo sapiens (Human), UniProt P43490); assay: Cellular NAD+ modulation assay in SH-SY5Y cells with doxorubicin; type: cell-based; conditions: Neuroblastoma SH-SY5Y cells, 40 hours, cellular NAD levels; for EC50: read-out: SY5Y (human) NAD Cell Dox EC50
Protocol: The compounds described herein were also assayed for their ability to stimulate the endogenous NAMPT in a native cellular environment in the cellular NAD+ modulation assay, which measures the ability of the compound to modulate cellular NAD levels. Increased levels of NAD are expected by compounds that permeate the cells and activate the catalytic activity of the endogenous NAMPT.
Neuroblastoma SH-SY5Y cells were grown in 1:1 mixture of Eagle's Minimum Essential Medium and F12 Medium, along with 10% fetal bovine serum, in a humidified incubator with an atmosphere of 95% air and 5% CO2 at 37° C. The assays were initiated by plating 20 μL of SH-SY5Y cells in culture medium with 0.1% fetal bovine serum, at a density of 5000 cells per well to a 384-well Corning™ BioCoat™ Poly-D-Lysine Multiwell Plates. The plates were incubated in the 37° C. incubators for a period of 5 hours. Compounds in DMSO were added to the plates in a volume of 120 nL using the Labcyte Echo Liquid Handlers. 5 μL of a 1.5 uM Doxorubicin solution in assay medium is added to each well. The plates are then incubated for 40 hours. 30 μL of a readout-solution containing 0.2 U/mL Diaphorase enzyme, 40 uM resazurin, 10 uM FMN, 0.8 U/mL Alcohol dehydrogenase, 3% ethanol, 0.4 mg/mL bovine serum albumin, 0.2% Triton X-100 in 100 mM Tris-HCl, 30 mM EDTA, pH 8.4. The plates were read for fluorescence (Excitation/Emission=540 nm/590 nm) using an EnVision plate reader after 60 mins of incubation at ambient temperature.

human NAMPT = human NAMPT (Homo sapiens (Human), UniProt P43490); assay: Human recombinant enzyme assay (NMN fluorescence biochemical assay); conditions: 6 nM human NAMPT, 60 min; for AC1.4 Human: concentration of compound that generates 40% higher activity over basal; for EC50: concentration that gives half-maximal activation
Sequence of human NAMPT (P43490 whole entry): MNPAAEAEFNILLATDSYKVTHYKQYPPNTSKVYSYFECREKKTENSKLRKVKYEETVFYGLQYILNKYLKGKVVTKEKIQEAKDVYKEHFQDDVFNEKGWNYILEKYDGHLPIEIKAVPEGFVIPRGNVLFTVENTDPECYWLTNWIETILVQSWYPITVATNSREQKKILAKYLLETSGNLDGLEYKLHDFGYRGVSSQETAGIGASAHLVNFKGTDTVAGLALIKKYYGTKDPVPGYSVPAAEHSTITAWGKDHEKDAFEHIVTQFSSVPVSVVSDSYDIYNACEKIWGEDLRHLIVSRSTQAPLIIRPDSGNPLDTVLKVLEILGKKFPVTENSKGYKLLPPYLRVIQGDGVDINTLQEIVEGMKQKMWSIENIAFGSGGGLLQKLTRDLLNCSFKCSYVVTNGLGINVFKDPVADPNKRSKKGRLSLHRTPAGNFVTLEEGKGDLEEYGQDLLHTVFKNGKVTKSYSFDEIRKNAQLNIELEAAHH
How it was run: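 Recombinant human NAMPT (6 nM) with 2.5 mM ATP, […] PRPP and […] nicotinamide in HEPES pH 7.2 with DTT, CHAPS, NaCl, MgCl2; 60 min at ambient temperature. NMN derivatised with acetophenone/KOH/formic acid, fluorescence read at 355/460 nm. AC1.4 (40% above basal) and EC50 reported.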

Sequence of endogenous NAMPT (P43490 whole entry): as above

SMILES | SY5Y (human) NAD Cell Dox AC0.3 (endogenous NAMPT) [µM] | EC50 (endogenous NAMPT) [nM] | AC1.4 Human (human NAMPT) [µM] | EC50 (human NAMPT) [nM]
Cc1nc(C(=O)N[C@H](C)c2ncccc2Cl)nc(NCCc2cn[nH]c2)c1C [Compound 30, (R)-4-((2-(1H-pyrazol-4-yl)ethyl)amino)-N-(1-(3-chloropyridin-2-yl)ethyl)-5,6-dimethylpyrimidine-2-carboxamide] | 0.88 | 1600 | 0.1725 | 741
Cc1nc(C(=O)N(C)C(c2cccc(F)c2)c2nccn2C)nc(NCCc2cn[nH]c2)c1C (stereo not shown) [Compound 5, 4-((2-(1H-pyrazol-4-yl)ethyl)amino)-N-((3-flurophenyl)(1-methyl-1H-imidazol-2-yl)methyl)-N,5,6-trimethylpyrimidine-2-carboxamide] | 2.68 | 1760 | 0.0235 | 449
Cc1nc(C(=O)NC(C)(C)c2ccccc2)nc(NCCc2cn[nH]c2)c1C [Compound 21, 4-((2-(1H-pyrazol-4-yl)ethyl)amino)-5,6-dimethyl-N-(2-phenylpropan-2-yl)pyrimidine-2-carboxamide] | 0.13 | 280 | 0.0815 | 550
Cc1nc(C(=O)N[C@H](C)c2cccs2)nc(NCCc2cn[nH]c2)c1C [Compound 14, (R)-4-((2-(1H-pyrazol-4-yl)ethyl)amino)-5,6-dimethyl-N-(1-(thiophen-2-yl)ethyl)pyrimidine-2-carboxamide] | 0.28 | 480 | 0.054 | 156
Cc1nc(C(=O)N[C@H](C)c2cccc(F)n2)nc(NCCc2cn[nH]c2)c1C [Compound 4, (R)-4-((2-(1H-pyrazol-4-yl)ethyl)amino)-N-(1-(6-fluoropyridin-2-yl)ethyl)-5,6-dimethylpyrimidine-2-carboxamide] | 0.07 | 110 | 0.02 | 106
Cc1nc(C(=O)N2CCC[C@@H]2c2cccc(Cl)c2)nc(NCCc2cn[nH]c2)c1C [Compound 13, (R)-(4-((2-(1H-pyrazol-4-yl)ethyl)amino)-5,6-dimethylpyrimidin-2-yl)(2-(3-chlorophenyl)pyrrolidin-1-yl)methanone] | 0.24 | 230 | 0.035 | 3740
Cc1nc(C(=O)N2CCC[C@@H]2c2cccc(F)c2)nc(NCCc2cn[nH]c2)c1C [Compound 15, (R)-(4-((2-(1H-pyrazol-4-yl)ethyl)amino)-5,6-dimethylpyrimidin-2-yl)(2-(3-fluorophenyl)pyrrolidin-1-yl)methanone] | 0.26 | 190 | 0.051 | 390

Source: patent US20240067631A1, “PYRAZOLE DERIVATIVES USEFUL AS NAMPT MODULATORS” (Cytokinetics, Inc., priority 2020, published 2024)
